Patent EP3178809A1, “HYBRID MOLECULE WITH STRUCTURAL AND ACTIVITY ELEMENTS OF RESVERATROL AND DIALLYL SULFIDE” (Albert-Ludwigs-Universität Freiburg, priority 2015, dated 2017)
Several values for one entry are separate records, joined by “and”; a condition that tells them apart may be missing. Equal entries are not always repeated. Entries after “also recorded” stand apart in the source; their conditions may differ.

Assays:
[1] = test system: humane Magenkarzinomzellen MKN-45; assay: Apoptosis induction in tumour cells (morphological criteria, duplicate assays); type: cell-based, human; settings: for Apoptoseinduktion in Tumorzellen: MKN-45, 3 Stunden, 37 °C, 5 % CO2
Protocol: Nach 3 Stunden bei 37 ° C, 5 % CO2 wurden die Prozentsätze apoptotischer Zellen bestimmt. […] Nach 3 Stunden bei 37 ° C, 5 % CO2 wurden die Prozentsätze apoptotischer Zellen bestimmt.
Die Daten basieren allesamt auf der quantitativen Bestimmung der Apoptose mittels der klassischen morphologischen Kriterien Kernkondensation, Kernfragmentation und Membrane Blebbing nach definierten Inkubationszeiten bei 37°C.
Die Ansätze erfolgten bei einer Zelldichte von 125 000 Zellen/ml in 96-Loch-Platten mit einem Reaktionsvolumen von 100 µl. Alle Ansätze wurden als Doppelansätze geführt und pro Messpunkt wurden mindestens 200 Zellen morphologisch bewertet. Eine detaillierte Aufstellung der verwendeten Medien, Inhibitoren, Zellen ist in den Arbeiten Scheit and Bauer, 2015; Bauer und Zarkovic, 2014; Bauer et al., 2014; Bauer, 2015 beschrieben.
Um zu klären, ob das Hybridmolekül aus Struktur- und Wirkungselementen von Resveratrol und Diallyldisulfid in der Lage ist, Apoptose in Tumorzellen zu induzieren, und dabei zu prüfen, ob sich durch die Kombination der Einzelfunktionen in einem Molekül der Synergieeffekt bündeln ließ, wurden steigende Konzentrationen des Hybridmoleküls zu Magenkarzinomzellen der Linie MKN-45 gegeben. Die als Parallelansätze geführten Ansätze wurden sowohl ohne als auch in Anwesenheit von 2 mM des Singulettsauerstofffängers Histidin inkubiert, um zu prüfen, ob der durch das Hybridmolekül ausgelöste Effekt durch Singulettsauerstoff vermittelt wird. Zum Vergleich wurde das gleiche Experiment mit steigenden Konzentrationen DADS durchgeführt, ebenfalls mit und ohne Histidinzugabe. Nach 3,5 Stunden Inkubation wurde der Prozentsatz apoptotischer Zellen bestimmt.

[2] = test system: nichtmaligne, diploide humane Fibroblasten Alpha-1; assay: Apoptosis induction in non-malignant cells (morphological criteria); type: cell-based, human; settings: Alpha-1 fibroblasts, 3 Stunden, 37 °C, 5 % CO2
Protocol: Figur 6: Diallyldisulfid und Dipropyldisulfid, nicht aber Diallylsulfid lösen selektiv in Tumorzellen interzelluläres Signaling und Apoptose aus. • A. 12 500 humane Magenkarzinomzellen MKN-45 oder 10 000 nichtmaligne, diploide humane Fibroblasten Alpha-1 wurden in Doppelansätzen in Serum-haltigen Medium mit den angegebenen Konzentrationen an Diallyldisulfid (DADS), Dipropyldisulfid (DPDS) oder Diallylsulfid (DAS) versetzt. Nach 3 Stunden bei 37 ° C, 5 % CO2 wurden die Prozentsätze apoptotischer Zellen bestimmt. […] Nach 3 Stunden bei 37 ° C, 5 % CO2 wurden die Prozentsätze apoptotischer Zellen bestimmt. Das Ergebnis zeigt, dass die durch DADS ausgelöste Apoptose von der Wirkung von Singulettsauerstoff, Superoxidanionen, Caspase-8, NO und HOCI abhängig ist.
Die Daten basieren allesamt auf der quantitativen Bestimmung der Apoptose mittels der klassischen morphologischen Kriterien Kernkondensation, Kernfragmentation und Membrane Blebbing nach definierten Inkubationszeiten bei 37°C. Parallel wurden diese Kriterien mithilfe der TUNEL-Reaktion gesichert, wodurch die für die Apoptose charakteristischen DNA-Strangbrüche nachgewiesen wurden, und die Abhängigkeit der Apoptoseinduktion von Caspase-3 und Caspase-9 überprüft, wodurch sichergestellt war, dass die Apoptose über den mitochondrialen Weg abläuft. […]

[3] = biological target: T1, protektive Katalase von Tumorzellen (Homo sapiens, UniProt P04040); assay: Inactivation of protective catalase: sensitisation of MKN-45 cells to peroxynitrite-induced apoptosis; type: cell-based; settings: 150 µM DADS for 20 min or 50 mM 3-AT, apoptosis 100 min after PON
T1 construct: endogenous in cells; host or cells: MKN-45 (human gastric carcinoma cell line)
T1 sequence (P04040 2-527 limits assumed): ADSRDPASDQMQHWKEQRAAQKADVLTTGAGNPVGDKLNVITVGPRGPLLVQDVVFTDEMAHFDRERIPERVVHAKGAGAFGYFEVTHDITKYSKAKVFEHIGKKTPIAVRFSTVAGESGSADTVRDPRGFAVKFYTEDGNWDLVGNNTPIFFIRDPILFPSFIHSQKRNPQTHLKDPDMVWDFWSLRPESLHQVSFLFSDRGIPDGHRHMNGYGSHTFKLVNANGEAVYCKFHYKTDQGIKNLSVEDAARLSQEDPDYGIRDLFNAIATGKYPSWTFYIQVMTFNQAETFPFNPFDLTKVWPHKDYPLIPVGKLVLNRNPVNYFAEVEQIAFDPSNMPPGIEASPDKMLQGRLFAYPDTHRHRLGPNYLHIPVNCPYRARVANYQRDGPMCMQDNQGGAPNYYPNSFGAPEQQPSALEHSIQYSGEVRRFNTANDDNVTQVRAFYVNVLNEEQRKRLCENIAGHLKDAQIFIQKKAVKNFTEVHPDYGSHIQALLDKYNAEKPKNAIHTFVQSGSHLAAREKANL
Protocol: Figur 8: DADS führt zur Inaktivierung der protektiven Katalase von Tumorzellen • A. Humane MKN-45 Tumorzellen enthielten entweder zunächst keine Zusätze (Kontrolle), 50 mM des Katalasehemmers 3-AT oder wurden für 20 Minuten mit 150 µM DADS behandelt. Nach einem Waschschritt und der Verdünnung der Zellkonzentration auf 6000 Zellen / 100 µl Ansatz wurde Peroxynitrit (PON) in den angegebenen Konzentrationen zugegeben. Nach 100 Minuten erfolgte die Bestimmung der apoptotischen Zellen in Doppelansätzen. Wie die Kontrolle zeigt, sind die Tumorzellen vor der Apoptose-auslösenden Wirkung von Peroxynitrit geschützt.
Figur 8 A zeigt, dass die kurzzeitige Behandlung von Tumorzellen mit DADS den gleichen Effekt hat, wie die Zugabe des Katalasehemmstoffs 3-Aminotriazol (3-AT), nämlich die Zellen für die Apoptose-auslösende Wirkung von exogen zugegebenem Peroxynitrit (PON) zu aktivieren. Die Sensitivierung für die Wirkung von PON ermöglicht die selektive Testung der Inaktivierung der membranständigen Katalase von Tumorzellen (Heinzelmann and Bauer, 2010; Böhm et al., 2015). Im Gegensatz zu DADS führt DAS zu keiner Inaktivierung der Katalase (Figur 8 F). […]

[4] = biological target: T2, NOX1 (Homo sapiens, UniProt Q9Y5S8); assay: Parallel control measurement of NOX1 activity / extracellular superoxide anion production; type: cell-based
T2 construct: endogenous in cells
T2 sequence (Q9Y5S8 1-564): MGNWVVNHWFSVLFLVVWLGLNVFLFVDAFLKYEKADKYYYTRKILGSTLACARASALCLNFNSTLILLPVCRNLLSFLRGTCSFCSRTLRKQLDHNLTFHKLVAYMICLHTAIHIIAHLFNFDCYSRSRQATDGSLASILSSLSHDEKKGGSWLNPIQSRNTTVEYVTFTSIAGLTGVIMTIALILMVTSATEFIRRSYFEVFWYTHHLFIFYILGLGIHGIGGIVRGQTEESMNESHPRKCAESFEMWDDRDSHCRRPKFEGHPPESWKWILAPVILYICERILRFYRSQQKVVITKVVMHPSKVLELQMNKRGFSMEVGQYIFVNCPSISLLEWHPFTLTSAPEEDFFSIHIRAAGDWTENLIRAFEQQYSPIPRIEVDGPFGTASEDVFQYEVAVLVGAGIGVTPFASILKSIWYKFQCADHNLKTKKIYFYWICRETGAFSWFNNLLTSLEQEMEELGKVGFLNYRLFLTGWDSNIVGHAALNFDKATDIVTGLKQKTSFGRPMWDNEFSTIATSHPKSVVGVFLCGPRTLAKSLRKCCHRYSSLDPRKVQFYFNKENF
T2 sequence (P13498 1-195 partner): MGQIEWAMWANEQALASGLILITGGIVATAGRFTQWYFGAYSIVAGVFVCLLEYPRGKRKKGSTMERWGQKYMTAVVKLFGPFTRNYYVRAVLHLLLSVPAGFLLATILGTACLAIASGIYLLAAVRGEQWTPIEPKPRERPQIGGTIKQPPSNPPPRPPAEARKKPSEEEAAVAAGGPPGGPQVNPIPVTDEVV
Protocol: Inkubationsbedingungen wie in Figur 11. Zusätzlich wurden 5 µM AEBSF oder 100 µM AEBSF zugegeben. 5 µM AEBSF führen zu einer Hemmung um nur 20 % von NOX1, während 100 µM mehr als 90 % hemmen, wie parallel durchgeführte Kontrollmessungen ergeben haben. Die geringfügige Hemmung durch 5 µM AEBSF reicht bereits aus, den Synergieeffekt aufzuheben und die Apoptoseinduktion auf das Niveau der alleinige Gabe von DADS zu drücken. Dies zeigt, dass tatsächlich die NOX-stimulierende Wirkung von Resveratrol für den Synergieeffekt notwendig war.
(§1) Die Messung der extrazellulären Superoxidanionenkonzentration von Tumorzellen sowie die Bestrahlungstechnik mit Niedrigdosis-Gammastrahlung wird in der Arbeit Temme and Bauer, 2013 beschrieben. Die Hemmung der NOD wird bei Scheit and Bauer, 2015, beschrieben. Viele Versuchsergebnisse wurden in den Figuren dargestellt.
Um zu klären, ob der durch das Hybridmolekül gebündelte Synergieeffekt tatsächlich durch die NOX-stimulierende Wirkung des von Resveratrol abgeleiteten Anteils mitgetragen wird, wurde die Wirkung des Hybridmoleküls in Gegenwart von 5 µM AEBSF untersucht. Für diese Hemmstoffkonzentration wurde in Parallelexperimenten ermittelt, dass sie eine Hemmung der extrazellulären Superoxidanionenproduktion um ca. 20 % zur Folge hat. […]

[5] = biological target: T3, NOX1 von Magenkarzinomzellen (Homo sapiens, UniProt Q9Y5S8); assay: Stimulation of superoxide anion production (shift of Cu/ZnSOD inhibition curve of 3-AT-reactivated apoptosis signalling); type: cell-based; settings: 0.9 µM, MKN-45, 100 mM 3-AT plus Cu/ZnSOD, 5,5 Stunden
T3 construct: endogenous in cells; host or cells: MKN-45
T3 sequence (Q9Y5S8 1-564): T2 sequence (Q9Y5S8 1-564)
T3 sequence (P13498 1-195 partner): T2 sequence (P13498 1-195 partner)
Protocol: MKN-45-Zellen unter Standardbedingungen erhielten zunächst keinen Zusatz (Kontrolle) oder 0.9 µM Resveratrol oder der Resveratrolderivate HT 161, HT 163, HT 182, die durch unterschiedliche Blockierung der drei vorhandenen OH-Gruppen gekennzeichnet sind. Dabei waren beim Derivat HT 161 alle drei OH-Gruppen durch TBS (tert-Butyldimethylsilyl) blockiert, beim Derivat HT 163 die beiden OH-Gruppen in den Positionen 3'und 5'blockiert und beim Derivat HT 182 selektiv nur die OH-Gruppe in der Position 4'blockiert.
Danach erfolgte die Zugabe von 100 mM 3-AT (Katalasehemmstoff) und der angegebenen Konzentrationen von Cu/ZnSOD. Nach 5,5 Stunden erfolgte die Bestimmung der Prozentsätze apoptotischer Zellen in Doppelansätzen.
Da 3-AT Superoxidanionen-abhängiges interzelluläres Apoptose-auslösendes Signaling reaktiviert, wird der Prozess durch Cu/Zn-SOD blockiert, wobei sich eine typische Glockenkurve ausbildet. Der biochemische Grund dafür wird in Bauer et al., Carcinogenesis 35: 1582-1591, 2014 dargestellt.
as §1, with “dargestellt. […]” for “dargestellt.”

[6] = test system: NO Dioxygenase; assay: Test for inhibition of NO dioxygenase (enhanced effect of NO donor DEA NONOate on superoxide-producing cells); type: cell-based
Source text: Die Messung erfordert, dass durch geeignete Maßnahmen, wie bei Scheit und Bauer, 2015 beschrieben, die Tumorzellkatalase maximal inhibiert, die Hemmwirkung von H2O2 auf ·NO und Peroxynitrit durch Anwesenheit eines Katalasemimetikums verhindert und de novo Synthese von ·NO durch die Anwesenheit des NOS Inhibitors L-NAME verhindert wird.
as §1

Which “Apoptoseinduktion in Tumorzellen” value [1] does the source give for `CCCSSCCC` [DPDS, Dipropyldisulfid] here?
The value was “konzentrationsabhängig zur Apoptose”.

And the “Apoptoseinduktion in normalen Zellen” value [2]?
The value was “nicht aber bei den normalen Zellen”.

What does the source list for `C=CCSCC=C` [DAS, Diallylsulfid]?
Apoptoseinduktion in Tumorzellen [1]: keine Aktivität; Wirkung auf die protektive Katalase (sensitisation to peroxynitrite) [3]: keine Wirkung auf die protektive Katalase

How did the “Hemmung von NOX1 / der extrazellulären Superoxidanionenproduktion” value ([4]; 5 µM) turn out when `NCCc1ccc(S(=O)(=O)F)cc1` [AEBSF, 4-(2-Aminoethyl)benzenesulfonyl fluoride] was run?
The value was 20%.

And the “Hemmung von NOX1 / der Superoxidanionensynthese” value ([4]; 100 µM)?
The value was > 95% and > 90%.

With `Oc1ccc(C=Cc2cc(O)cc(O)c2)cc1` [Resveratrol] as the molecule, how does the “stimulierende Wirkung auf die Superoxidanionensynthese” value [5] read?
The value was “Rechtsverschiebung der Kurve”.

And the “Synergieeffekt mit Taxol” value ([1]; MKN-45, apoptosis)?
The value was “Synergieeffekt”.

And the “Synergieeffekt mit DADS” value ([1]; MKN-45, apoptosis, 3,5 Stunden (Figur 10) or 5,5 Stunden (Figur 15))?
Its value is “konzentrationsabhängigen beachtlichen Synergieeffekt; also recorded: zur Ausprägung eines Synergieeffektes mit DADS befähigt”.

Which EC40 ([1]; Homo sapiens, MKN-45, 3.5 h, read-out: Konzentration für den gleichen Effekt (ca. 40 Prozent des Maximalwertes der Apoptoseinduktion)) does the source give for `C=CCSSCC=C` [DADS, Diallyldisulfid] here?
The EC40 was 1.1 µM.

And the “Konzentration, bei der der maximale Apoptose-auslösende Effekt erzielt wird” value ([1]; MKN-45, 3,5 Stunden Inkubation, alleinige Gabe)?
Its value is 10 µM.

What about the “Apoptoseinduktion in Tumorzellen” value [1] of the same molecule?
The value was “konzentrationsabhängig zur Apoptose”.

And the “Apoptoseinduktion in normalen Zellen” value [2]?
The value was “nicht aber bei den normalen Zellen”.

And the “Hemmung der NO Dioxygenase” value [6]?
Its value is “Hemmung dieses Enzyms”.

And the “Wirkung auf die protektive Katalase (sensitisation to peroxynitrite)” value [3]?
Its value is “gleichen Effekt wie der Katalasehemmstoff”.
